Experimental data as given in paper PMC11742003, “Co-expression of the RPS6KB1 and PDPK1 genes for production of activated p70S6K1 using bac-to-bac baculovirus expression system” (Molecular Biology Reports, 2025).

Biological target: T1, p70S6K1 (His-actS6K1; Ribosomal protein S6 kinase 1) (Homo sapiens, UniProt P23443, T412D)
T1 construct: gene RPS6KB1; 6xHis-tagged S6K1 residues 3-398 (ΔAID), phosphorylated at T229 by co-expressed PDPK1(ΔPH)
Assay: AlphaScreen kinase assay with biotinylated rpS6 peptide, […] ATP, purified enzyme
Format: biochemical

T1 sequence (P23443 26-421 T412D): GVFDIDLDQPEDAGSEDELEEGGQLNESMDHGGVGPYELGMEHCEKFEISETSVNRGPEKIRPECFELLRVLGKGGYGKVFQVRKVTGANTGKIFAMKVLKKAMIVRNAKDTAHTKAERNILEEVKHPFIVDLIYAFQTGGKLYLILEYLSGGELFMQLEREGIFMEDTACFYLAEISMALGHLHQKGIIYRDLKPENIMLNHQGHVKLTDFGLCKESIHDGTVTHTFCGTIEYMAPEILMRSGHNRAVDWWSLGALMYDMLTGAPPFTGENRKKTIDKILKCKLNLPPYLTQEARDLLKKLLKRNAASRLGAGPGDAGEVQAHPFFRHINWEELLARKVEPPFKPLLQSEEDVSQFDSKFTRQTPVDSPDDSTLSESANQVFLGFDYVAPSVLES

Question: `Cn1cc(-c2ccc(F)c(C(F)(F)F)c2)nc1C1CCN(c2ncnc3[nH]ncc23)CC1` [LY2584702] was tested. Which IC50 did it give?
Answer: The IC50 was 4.2 nM.
